Experimental data taken from article PMC12303054, “First-in-class inhibitors of Nsp15 endoribonuclease of SARS-CoV-2: Modeling, synthesis, and enzymatic assay of thiazolidinedione and rhodanine analogs” (The Journal of Biological Chemistry, 2025).

Legend:
Type in all cases: biochemical
Settings in all cases: 100 µM
[1] = molecular target: Tyr343Ala SARS-CoV-2 Nsp15 (Severe acute respiratory syndrome coronavirus 2, UniProt P0DTD1, Y6794A)
[2] = molecular target: His250Ala SARS-CoV-2 Nsp15 (Severe acute respiratory syndrome coronavirus 2, UniProt P0DTD1, H6701A)
[3] = molecular target: Lys345Ala SARS-CoV-2 Nsp15 (Severe acute respiratory syndrome coronavirus 2, UniProt P0DTD1, K6796A)
[4] = molecular target: Ser294Ala SARS-CoV-2 Nsp15 (Severe acute respiratory syndrome coronavirus 2, UniProt P0DTD1, S6745A)

Measured: residual activity retained

O=C1NC(=S)SC1=CC=Cc1ccnc2ccccc12 [KCO237, 5-(3-quinolin-4-yl-allylidene)-2-thioxo-thiazolidine-4-one]
approximately 50%: all assays above
